This note sets out measurements from ChEMBL document CHEMBL4196107, “Antiangiogenic Activity and Chemical Derivatization of the Neurotoxic Acetogenin Annonacin Isolated from Asimina triloba” (J Nat Prod, 2018).

In general, Papp refers to a coefficient for how fast a substance crosses the barrier. The term inhibition denotes the percentage by which the read-out fell short of the control. Usually IC50 stands for the concentration that inhibits the measured activity by half.

Each structure is given as a SMILES string. Calls of active or inactive are those of the source. The calls are words filed in the database; no cut-off is given here.

Data set [1] is described as follows: Effective permeability of the compound at pH 7.4 by PAMPA-BBB assay. (The PAMPA barrier holds no transporters, so it reflects passive diffusion.)
Data set [2] concerns Thoracic aorta. The data set is described as follows: Antiangiogenic activity in Sprague-Dawley rat thoracic aorta ring assessed as inhibition of microvessels outgrowth at 1 uM after 5 days. It counts as functional, tissue-based.
Data set [3] deals with Thoracic aorta. The data set is described as follows: Antiangiogenic activity in Sprague-Dawley rat thoracic aorta ring assessed as inhibition of microvessels outgrowth after 5 days. The format is functional, tissue-based. As to conditions: 120 h.
A short description of data set [4]: Effective permeability of the compound in PBS at 10 uM at pH 7.4 after 16 hrs by PAMPA-BBB assay.
Data set [5] concerns Thoracic aorta. The data set is described as follows: Antiangiogenic activity in Sprague-Dawley rat thoracic aorta ring assessed as inhibition of microvessels outgrowth at 50 uM after 5 days. It counts as functional.

With `CC(C)NCC(O)COc1cccc2ccccc12` (centres undefined) [PROPRANOLOL], the Papp in data set [1] was 12 ×10⁻⁶ cm/s.

Consider `CNC(=O)c1cc(Oc2ccc(NC(=O)Nc3ccc(Cl)c(C(F)(F)F)c3)cc2)ccn1`, for which the inhibition result in the data set with Thoracic aorta [2] was “Active”.

In the case of `CCCCCCCCCCCC[C@@H](O)[C@H]1CC[C@H]([C@H](O)CCCC[C@H](O)CCCCC[C@@H](O)CC2=C[C@H](C)OC2=O)O1`, in the data set with Thoracic aorta [3], the IC50 was 3 µM. Moreover, in data set [4], the Papp at 16 h, 10 µM turned out to be 0.51 ×10⁻⁶ cm/s.

Consider `CCCCCCCCCCCC[C@H](N=[N+]=[N-])[C@H]1CC[C@H]([C@H](CCCC[C@H](CCCCC[C@@H](CC2=C[C@H](C)OC2=O)N=[N+]=[N-])N=[N+]=[N-])N=[N+]=[N-])O1`, for which the inhibition at 50 µM in the data set with Thoracic aorta [5] (120 h) came out at 40%.

Take `CO[C@@H]1[C@H](OC(=O)NC(=O)CCl)CC[C@]2(CO2)[C@H]1[C@@]1(C)O[C@@H]1CC=C(C)C`: in the data set on Thoracic aorta [5], the inhibition result was “Active”.

Turning to `CCCCCCCCCCCC[C@@H](N=[N+]=[N-])[C@H]1CC[C@H]([C@@H](CCCC[C@@H](CCCCC[C@H](CC2=C[C@H](C)OC2=O)N=[N+]=[N-])N=[N+]=[N-])N=[N+]=[N-])O1`, the inhibition entry in the data set on Thoracic aorta [5] is “inactive”.

With `CN(Cc1cnc2nc(N)nc(N)c2n1)c1ccc(C(=O)N[C@@H](CCC(=O)O)C(=O)O)cc1` [METHOTREXATE], the Papp at 16 h, 10 µM in data set [4] came to 0.007 ×10⁻⁶ cm/s. Moreover, the Peff in data set [1] amounted to 0.037 ×10⁻⁶ cm/s.
